Test [1] has as its system S. aureus RN4220. Type of test: cell-based, Staphylococcus aureus. Conditions: antibiotic sensitive strain S. aureus RN4220. The method, then:
(§1) Minimum inhibition concentrations (MICs) were determined against Escherichia coli (ATCC 25922), Staphylococcus aureus (ATCC 25923), Klebsiella pneumoniae (ATCC 10031) and Pseudomonas aeruginosa (ATCC 27853). Also clinical strains of E. coli, K. pneumoniae, E. cloacae, P. aeruginosa, Serratia marcescens, Proteus mirabilis, S. pneumoniae, Acinetobacter baumannii, A. johnsonii and S. aureus were used for MICs assays. Additionally, clinical strains of yeast including Candida albicans, C. glabrata, C. parapsilosis and C. quillermondiae were used. The susceptibility of these microorganisms to Chain peptides were determined using micro broth dilution assay. Colonies of the respective microorganism from Muller Hinton (MH) agar plates incubated overnight were suspended in MH broth media and final concentration of microorganism was adjusted to 5.0×10^5 cfu/ml. An aliquot of 10 μl of each Chain peptide, or gentamicin, tetracycline as reference antibiotics were added in differing concentrations along with 90 μl of bacterial suspension to 96 well polypropylene plates and incubated at 37° C. for 20 to 24 hours. Concentrations of Chain peptides and reference antibiotics ranged from 0.125 to 128 μg/ml and the MICs were recorded as the lowest concentration with no visual growth of bacteria. Similarly, antifungal MICs were tested in Potato dextrose broth.
(§2) Peptides Chain 104, Chain 105, Chain 201, Chain 308, Chain 310 were tested against antibiotic-sensitive strains of S. aureus RN4220 and methicillin resistant strains of S. aureus COL (MRSA). Chain peptides comprising of either L- or D-form amino acids were tested against these bacteria, and the D-form peptides were found have better activity compared to L-form (Table 6). Synergistic activity of chain peptides along with Ertapenem (4 μg/ml) was tested to know whether it will influence the activity against MRSA strains. […] Chain 310 has the best antibacterial activity against the MRSA strains with a MIC of 0.06 & 0.03 μg/ml along with Ertapenem (4 μg/ml) for both forms of L and D-peptides (Table 6).

Test [2] deals with S. aureus COL (MRSA). In words: Synergistic activity with Ertapenem (4 μg/ml) against MRSA, MIC. Conditions: S. aureus COL, together with 4 μg/ml Ertapenem (synergistic activity). It counts as cell-based, Staphylococcus aureus. On the procedure:
as §1, §2

In test [3] the test system is clinical strains of C. glabrata. The test is described as follows: MIC, clinical yeast strains, C. glabrata. Type of test: cell-based, Candida glabrata. Details: unit: μg/ml. The method, then:
as §1
(§3) Clinical strains of yeasts including Candida albicans, C. glabrata, C. parapsilosis and C. quillermondiae were also tested with the 12 Chain peptides. The minimum inhibitory concentration (MICs) varied between these peptides and are presented in Tables 4a, 4b, 4c and 5a, 5b, 5c. Peptides Chain 105, 201 and 308 are broad spectrum antimicrobials with MICs between 0.5-32 μg/ml against all the bacteria and yeasts tested, except Serratia marcescens and Proteus mirabilis, against which the MICs were between 64-128 μg/ml. Peptide Chain 306 has narrow spectrum activity against E.coli at 1 μg/ml and for the rest of the bacterial strains at >32 μg/ml (FIG. 10).

Test [4] relates to clinical strains of C. parapsilosis. In words: MIC, clinical yeast strains, C. parapsilosis. Type of test: cell-based, Candida parapsilosis. Details: unit: μg/ml. On the procedure:
as §1, §3

Test [5] has as its system clinical strains of C. quillermondiae. In words: MIC, clinical yeast strains, C. quillermondiae. It counts as cell-based. Conditions: C. quillermondiae clinical yeast strain 1. The method, then: as §1, §3
In test [6] the test system is clinical strains of Candida albicans. The test is described as follows: MIC, clinical yeast strains, Candida albicans. It counts as cell-based. Details: unit: μg/ml. On the procedure: as §1, §3
The mark [7] stands for this setting: C. glabrata clinical yeast strain 1.
The mark [8] stands for this setting: C. glabrata clinical yeast strain 2.
[9] abbreviates: C. glabrata clinical yeast strain 3.
The mark [10] stands for this setting: C. glabrata clinical yeast strain 4.
Setting [11] is: C. parapsilosis clinical yeast strain 1.
Setting [12] is: C. parapsilosis clinical yeast strain 2.
Where [13] appears, read: C. parapsilosis clinical yeast strain 3.
Where [14] appears, read: C. parapsilosis clinical yeast strain 4.
Where [15] appears, read: Candida albicans clinical yeast strain 1.
Setting [16] is: Candida albicans clinical yeast strain 2.
The mark [17] stands for this setting: Candida albicans clinical yeast strain 3.
Where [18] appears, read: Candida albicans clinical yeast strain 4.
The mark [19] stands for this setting: Candida albicans clinical yeast strain 5.

Each structure is given as a SMILES string. Where a SMILES comes first, the peptide text is derived from it. [ ]: non-standard residue; d: D form. Some results are limits rather than exact numbers.

With `CC[C@H](C)[C@H](NC(=O)[C@H](CCSC)NC(=O)[C@H](C)NC(=O)[C@H](CCCNC(=N)N)NC(=O)[C@H](Cc1c[nH]c2ccccc12)NC(=O)[C@H](CCCCN)NC(=O)[C@@H](N)CCCNC(=N)N)C(=O)N[C@@H](CCCNC(=N)N)C(=O)N[C@@H](CC(C)C)C(=O)N[C@@H](Cc1c[nH]cn1)C(=O)N[C@@H](C)C(=O)N[C@@H](CCCCN)C(=O)N[C@@H](CCCNC(=N)N)C(=O)N[C@@H](CC(C)C)C(=O)N[C@@H](CCCNC(=N)N)C(=O)N[C@@H](CCCCN)C(=O)O` [Compound 104] (H-RKWRAMIRLHAKRLRK-OH), the “Minimum inhibitory concentration (MIC), S. aureus RN4220” value in test [1] was over 64 µg/mL. Moreover, the “Minimum inhibitory concentration (MIC), S. aureus COL + 4 μg/ml Ertapenem” value in test [2] came out at 0.25 µg/mL.
Taken in the same sequence, the figures for `CC(C)C[C@@H](NC(=O)[C@@H](CCCCN)NC(=O)[C@@H](CCCCN)NC(=O)[C@@H](Cc1ccccc1)NC(=O)[C@@H](CC(C)C)NC(=O)[C@@H](Cc1c[nH]c2ccccc12)NC(=O)[C@@H](CCCNC(=N)N)NC(=O)[C@@H](Cc1c[nH]c2ccccc12)NC(=O)[C@@H](CCCCN)NC(=O)[C@@H](CCCNC(=N)N)NC(=O)[C@H](N)CCCCN)C(=O)O` [310 D] (H-[dK][dR][dK][dW][dR][dW][dL][dF][dK][dK][dL]-OH) were over 64 µg/mL and under 0.03 µg/mL.
Consider `C[C@@H]1[C@H](O)[C@@H](C)/C=C/C=C/C=C/C=C/C=C/C=C/C=C/[C@H](O[C@@H]2O[C@H](C)[C@@H](O)[C@H](N)[C@@H]2O)C[C@@H]2O[C@](O)(C[C@@H](O)C[C@@H](O)[C@H](O)CC[C@@H](O)C[C@@H](O)CC(=O)O[C@H]1C)C[C@H](O)[C@H]2C(=O)O` [Amphotericin B, reference compound], for which the Minimum inhibitory concentration in test [3] (setting [7]) is given as 4; in test [3] (setting [8]), 4; in test [3] (setting [9]), 2; in test [3] (setting [10]), 4; in test [4] (setting [11]), 2; in test [4] (setting [12]), 2. Also, the Minimum inhibitory concentration in test [4] (setting [13]) came out at 2; in test [4] (setting [14]), 2; in test [5], 2; in test [6] (setting [15]), 2; in test [6] (setting [16]), 0.5; in test [6] (setting [17]), 2. Also, the Minimum inhibitory concentration in test [6] (setting [18]) and in test [6] (setting [19]) was 2 throughout.
Regarding `CC[C@@H](C)[C@@H](NC(=O)[C@@H](CCSC)NC(=O)[C@@H](C)NC(=O)[C@@H](CCCNC(=N)N)NC(=O)[C@@H](Cc1c[nH]c2ccccc12)NC(=O)[C@@H](CCCCN)NC(=O)[C@H](N)CCCNC(=N)N)C(=O)N[C@H](CCCNC(=N)N)C(=O)N[C@H](CC(C)C)C(=O)N[C@H](Cc1c[nH]cn1)C(=O)N[C@H](C)C(=O)N[C@H](CCCCN)C(=O)N[C@H](CCCNC(=N)N)C(=O)N[C@H](CC(C)C)C(=O)N[C@H](CCCNC(=N)N)C(=O)N[C@H](CCCCN)C(=O)O` [104 D] (H-[dR][dK][dW][dR][dA][dM][dI][dR][dL][dH][dA][dK][dR][dL][dR][dK]-OH), the “Minimum inhibitory concentration (MIC), S. aureus RN4220” value in test [1] is 64 µg/mL. Further, the “Minimum inhibitory concentration (MIC), S. aureus COL + 4 μg/ml Ertapenem” value in test [2] is 4 µg/mL.
`CC(C)C[C@H](NC(=O)[C@H](CC(C)C)NC(=O)[C@H](Cc1ccccc1)NC(=O)[C@H](Cc1c[nH]c2ccccc12)NC(=O)[C@H](CCCCN)NC(=O)[C@H](CC(C)C)NC(=O)[C@@H](N)CCCNC(=N)N)C(=O)N[C@@H](Cc1ccccc1)C(=O)N[C@@H](CCCNC(=N)N)C(=O)N[C@@H](CCCCN)C(=O)N[C@@H](CCCNC(=N)N)C(=O)O` [Compound 308] (H-RLKWFLLFRKR-OH): the “Minimum inhibitory concentration (MIC), S. aureus RN4220” value in test [1] is over 64 µg/mL. For the same molecule, the “Minimum inhibitory concentration (MIC), S. aureus COL + 4 μg/ml Ertapenem” value in test [2] was 0.5 µg/mL.
The like results for `CC[C@H](C)[C@H](NC(=O)[C@H](CCSC)NC(=O)[C@H](C)NC(=O)[C@H](CCCNC(=N)N)NC(=O)[C@H](Cc1c[nH]c2ccccc12)NC(=O)[C@H](CCCCN)NC(=O)[C@@H](N)CCCNC(=N)N)C(=O)N[C@@H](CCCNC(=N)N)C(=O)N[C@@H](CC(C)C)C(=O)N[C@@H](Cc1c[nH]cn1)C(=O)N[C@@H](C)C(=O)N[C@@H](CCCCN)C(=O)N[C@@H](Cc1c[nH]c2ccccc12)C(=O)N[C@@H](CC(C)C)C(=O)N[C@@H](CCCNC(=N)N)C(=O)N[C@@H](CCCCN)C(=O)O` [Compound 105] (H-RKWRAMIRLHAKWLRK-OH) were, in that order, over 64 µg/mL and 0.5 µg/mL.
`CC(C)C[C@@H](NC(=O)[C@@H](CCCCN)NC(=O)[C@@H](Cc1c[nH]c2ccccc12)NC(=O)[C@@H](CCCCN)NC(=O)[C@@H](C)NC(=O)[C@@H](Cc1c[nH]cn1)NC(=O)[C@@H](CC(C)C)NC(=O)[C@@H](CCCNC(=N)N)NC(=O)[C@@H](Cc1c[nH]c2ccccc12)NC(=O)[C@H](N)Cc1c[nH]c2ccccc12)C(=O)N[C@H](Cc1c[nH]c2ccccc12)C(=O)O` [Chain109D] (H-[dW][dW][dR][dL][dH][dA][dK][dW][dK][dL][dW]-OH): the Minimum inhibitory concentration in test [3] (setting [7]) stood at 128; in test [3] (setting [8]), 128; in test [3] (setting [9]), 16; in test [3] (setting [10]) it was 64; in test [4] (setting [11]), 128; in test [4] (setting [12]), 128. Moreover, the Minimum inhibitory concentration is listed as 128 in test [4] (setting [13]); 8 in test [4] (setting [14]); 128 in test [5]; 128 in test [6] (setting [15]); 128 in test [6] (setting [16]); 128 in test [6] (setting [17]). Besides, the Minimum inhibitory concentration in test [6] (setting [18]) and in test [6] (setting [19]) was 128 in each case.
With `CC[C@@H](C)[C@@H](NC(=O)[C@@H](Cc1c[nH]c2ccccc12)NC(=O)[C@H](N)CCCCN)C(=O)N[C@@H](C(=O)N[C@H](Cc1c[nH]c2ccccc12)C(=O)N[C@H](CCCNC(=N)N)C(=O)N[C@H](Cc1c[nH]c2ccccc12)C(=O)N[C@H](CCCNC(=N)N)C(=O)N[C@H](Cc1ccccc1)C(=O)N[C@H](CCCCN)C(=O)N[C@H](CCCNC(=N)N)C(=O)O)C(C)C` [201 D] (H-[dK][dW][dI][dV][dW][dR][dW][dR][dF][dK][dR]-OH), the “Minimum inhibitory concentration (MIC), S. aureus RN4220” value in test [1] amounted to 2 µg/mL. Moreover, in test [2], the “Minimum inhibitory concentration (MIC), S. aureus COL + 4 μg/ml Ertapenem” value was found to be 1 µg/mL.
Take `CC[C@@H](C)[C@@H](NC(=O)[C@@H](CCSC)NC(=O)[C@@H](C)NC(=O)[C@@H](CCCNC(=N)N)NC(=O)[C@@H](Cc1c[nH]c2ccccc12)NC(=O)[C@@H](CCCCN)NC(=O)[C@H](N)CCCNC(=N)N)C(=O)N[C@H](CCCNC(=N)N)C(=O)N[C@H](CC(C)C)C(=O)N[C@H](Cc1c[nH]cn1)C(=O)N[C@H](C)C(=O)N[C@H](CCCCN)C(=O)N[C@H](Cc1c[nH]c2ccccc12)C(=O)N[C@H](CC(C)C)C(=O)N[C@H](CCCNC(=N)N)C(=O)N[C@H](CCCCN)C(=O)O` [105 D] (H-[dR][dK][dW][dR][dA][dM][dI][dR][dL][dH][dA][dK][dW][dL][dR][dK]-OH): the “Minimum inhibitory concentration (MIC), S. aureus RN4220” value in test [1] amounted to 16 µg/mL. For the same molecule, in test [2], the “Minimum inhibitory concentration (MIC), S. aureus COL + 4 μg/ml Ertapenem” value was 2 µg/mL.
